In ChEMBL document CHEMBL1130916, “Design and synthesis of conformationally-constrained MMP inhibitors” (Bioorg Med Chem Lett, 1998):

Key:
Stromelysin-1 = Stromelysin-1 (Homo sapiens, UniProt P08254); assay: Inhibition of matrix metalloprotease-3 (MMP-3)
Interstitial collagenase = target: T1, Interstitial collagenase (Homo sapiens, UniProt P03956); assay: Inhibition of matrix metalloprotease-1 (MMP-1)
T1 sequence (P03956 whole entry): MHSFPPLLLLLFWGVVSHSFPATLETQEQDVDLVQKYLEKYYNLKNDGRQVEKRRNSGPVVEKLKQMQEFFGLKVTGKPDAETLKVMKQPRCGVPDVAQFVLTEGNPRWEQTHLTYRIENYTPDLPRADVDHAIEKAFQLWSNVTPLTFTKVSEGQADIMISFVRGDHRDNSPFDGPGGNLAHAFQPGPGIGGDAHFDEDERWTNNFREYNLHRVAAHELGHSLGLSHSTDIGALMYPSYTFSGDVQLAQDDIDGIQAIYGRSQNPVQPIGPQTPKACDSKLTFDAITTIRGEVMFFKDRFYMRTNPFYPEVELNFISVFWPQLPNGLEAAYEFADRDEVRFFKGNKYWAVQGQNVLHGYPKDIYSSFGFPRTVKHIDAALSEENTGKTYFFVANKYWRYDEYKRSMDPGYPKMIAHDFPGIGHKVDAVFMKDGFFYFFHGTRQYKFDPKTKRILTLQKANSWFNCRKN

Chain of Stromelysin-1 (P08254 whole entry): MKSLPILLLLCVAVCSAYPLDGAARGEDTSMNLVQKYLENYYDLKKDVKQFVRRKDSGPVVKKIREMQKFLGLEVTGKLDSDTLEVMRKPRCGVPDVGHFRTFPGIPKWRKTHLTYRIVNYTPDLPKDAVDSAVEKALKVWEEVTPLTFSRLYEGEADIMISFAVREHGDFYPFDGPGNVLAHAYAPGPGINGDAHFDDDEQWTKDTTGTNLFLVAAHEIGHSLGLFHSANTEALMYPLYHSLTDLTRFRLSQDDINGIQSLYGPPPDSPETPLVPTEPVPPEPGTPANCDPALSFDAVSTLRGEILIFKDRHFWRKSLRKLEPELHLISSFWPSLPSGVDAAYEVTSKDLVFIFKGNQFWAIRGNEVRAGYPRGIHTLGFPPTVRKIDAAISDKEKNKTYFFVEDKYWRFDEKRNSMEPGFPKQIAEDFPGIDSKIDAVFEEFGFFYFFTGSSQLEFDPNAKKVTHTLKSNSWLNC

Structure (SMILES) | IC50 (Stromelysin-1) [nM] | IC50 (Interstitial collagenase) [nM]
CCCCC[C@H](CC(=O)NO)C(=O)N[C@H]1CCCCN(CC(=O)OC)C1=O | 824 | 129
COC(=O)CN1CCCC[C@H](NC(=O)[C@@H](CC(=O)NO)CC(C)C)C1=O | 2900 | 225
CC(C)C[C@H](CC(=O)NO)C(=O)N[C@H]1CCCCNC1=O | 11700 | 3900
CCCCCCCC[C@H](CC(=O)NO)C(=O)N[C@H]1CCCCN(CCOC)C1=O | 250 | 1890
CC(C)C[C@H](CC(=O)NO)C(=O)N[C@H]1CCCCN(CCCOc2ccccc2)C1=O | 1420 | 140
CCCCCCCCC(C(=O)N[C@H]1CCCCN(CCOC)C1=O)C(C)C(=O)NO (single isomer, unassigned) | 108 | 4360

The next compounds have a lower IC50 (Interstitial collagenase) than those just listed; values first:

IC50 (Stromelysin-1) [nM] | IC50 (Interstitial collagenase) [nM] | Structure (SMILES)
1040 | 11 | CCCCCCCC[C@H](CC(=O)NO)C(=O)N[C@H]1CCCCN(CC(=O)OC)C1=O
94 | 83 | CCC[C@@H](C(=O)NO)[C@@H](CC(C)C)C(=O)N[C@H]1CCCCN(CCOC)C1=O
21 | 57 | CCCCCCCC[C@@H](C(=O)N[C@H]1CCCCN(CC(=O)OC)C1=O)[C@@H](C)C(=O)NO
215 | 49 | COC(=O)CN1CCCC[C@H](NC(=O)[C@H](CC(C)C)[C@@H](C)C(=O)NO)C1=O
58 | 96 | CCC[C@@H](C(=O)NO)[C@@H](CC(C)C)C(=O)N[C@H]1CCCCN(CC(=O)OC)C1=O
518 | 117 | CC(C)C[C@H](CC(=O)NO)C(=O)N[C@H]1CCCCN(CCOc2ccccc2)C1=O
30 | 112 | CCCCCCCC[C@@H](C(=O)N[C@H]1CCCCN(CCOC)C1=O)[C@@H](C)C(=O)NO
– | 51 | COCCN1CCCC[C@H](NC(=O)[C@H](CC(C)C)[C@@H](CCCO)C(=O)NO)C1=O
